Measured values as given in patent publication US11345956B2, “Methods and compositions related to prostate cancer therapeutics” (The Johns Hopkins University, priority 2014, dated 2022).
Like-named read-outs stand apart in the source and are kept apart here.

Tested on: metastatic castration-resistant prostate cancer (CRPC)
Settings: for median overall survival (OS): preliminary survival analysis; for PSA response rate (≥50% PSA decline from baseline, maintained ≥4 weeks): all patients of the cohort; for HR for PFS, AR-V7 presence / HR for PSA-PFS, AR-V7 presence: multivariable Cox model adjusting for AR-FL expression and prior use of the alternative AR-directed agent; for HR for PFS, AR-FL levels / HR for PSA-PFS, AR-FL levels / HR for PFS, previous use of alternative AR-directed agent / HR for PSA-PFS, previous use of alternative AR-directed agent: multivariable Cox model; for HR for PFS, AR-FL levels / HR for PSA-PFS, AR-FL levels: covariate AR-FL level; for HR for PFS, previous use of alternative AR-directed agent / HR for PSA-PFS, previous use of alternative AR-directed agent: previous abiraterone (enzalutamide cohort) or previous enzalutamide (abiraterone cohort); for Hazard Ratio (HR) for PFS, variable AR-FL Level (log) / Hazard Ratio (HR) for PFS, variable AR-V7 Positive / Hazard Ratio (HR) for PFS, variable Prior use of Abiraterone / Hazard Ratio (HR) for PSA-PFS, variable AR-FL Level (log) / Hazard Ratio (HR) for PSA-PFS, variable AR-V7 Positive / Hazard Ratio (HR) for PSA-PFS, variable Prior use of Abiraterone: propensity score weighted multivariable model; for hazard ratio (HR) for OS, AR-V7-positive vs AR-V7-negative / hazard ratio (HR) for PFS, AR-V7-positive vs AR-V7-negative / hazard ratio (HR) for PSA-PFS, AR-V7-positive vs AR-V7-negative: univariate, log-rank
[1] = AR-V7-negative patients (baseline CTCs)
[2] = AR-V7-positive patients (baseline CTCs)
[3] = no previous alternative AR-directed agent (abiraterone/enzalutamide)
[4] = no previous alternative AR-directed agent (abiraterone/enzalutamide), AR-V7 [+]
[5] = no previous alternative AR-directed agent (abiraterone/enzalutamide), AR-V7 [−]
[6] = previous alternative AR-directed agent (abiraterone/enzalutamide), AR-V7 [+]
[7] = previous alternative AR-directed agent (abiraterone/enzalutamide), AR-V7 [−]
[8] = previous alternative AR-directed agent (abiraterone/enzalutamide)

Experimental: Men with metastatic CRPC who were beginning standard-of-care treatment with enzalutamide or abiraterone were prospectively enrolled. Patients were required to have histologically-confirmed prostate adenocarcinoma, progressive disease despite “castration levels” of serum testosterone (<50 ng/dL; and androgen-deprivation therapy had to continue), and radiographic metastases on computed tomography (CT) or technetium-99 bone scans. […] Patients were excluded if they planned to receive additional concurrent anticancer therapies. Prior chemotherapy was permitted, as was previous treatment with the alternative AR-directed agent (i.e. prior abiraterone use in enzalutamide-treated patients, and vice versa).
This was a prospective study evaluating the ability of baseline (pretreatment) AR-V7 status from CTCs (circulating tumor cells) to predict response or resistance to AR-directed agents.
Follow-up was prospectively defined: patients had PSA measurements every 1-2 months, as well as CT (chest/abdomen/pelvis) and technetium-99 bone scans every 2-4 months.
CTC analyses were conducted using the commercially-available ALERE™ CTC AdnaTest platform (AdnaGen, Langenhagen, Germany). Isolation and enrichment of CTCs was performed using the ProstateCancerSelect kit, and mRNA expression analyses were performed using the ProstateCancerDetect kit with multiplexed reverse-transcription polymerase-chain-reaction (qRT-PCR) primers to detect the presence of CTCs, and custom primers designed to detect the full-length-AR (AR-FL) and AR splice variant-7 (AR-V7) (Hu, R., et al. (2009) Cancer Res 69, 16-22). Relative AR-V7 transcript abundance was determined by calculating the ratio of AR-V7 to AR-FL (Hu, R., et al. (2009) Cancer Res 69, 16-22; Watson, P. A., et al. (2010) Proceedings of the National Academy of Sciences).
Best PSA response (maximal percentage PSA decrease from baseline) for each patient was also determined.
Secondary endpoints included freedom-from-PSA-progression (PSA-progression-free-survival; PSA-PFS), freedom-from-clinical/radiographic-progression (progression-free-survival; PFS), and overall survival (OS). PSA-progression was defined as a ≥25% increase in PSA from nadir (and by ≥2 ng/mL), requiring confirmation ≥4 weeks later (PCWG2 criteria) (Scher, H. I., et al. (2008) Journal of Clinical Oncology: Oficial Journal of the American Society of Clinical Oncology 26, 1148-1159).

| SMILES | median PSA-progression-free survival (PSA-PFS) (AR-V7-negative patients) [months] | median clinical/radiographic progression-free survival (PFS) (AR-V7-negative patients) [months] | PSA response rate (≥50% PSA decline from baseline) [1] [%] | median overall survival (OS) (AR-V7-negative patients) | median PSA-progression-free survival (PSA-PFS) (AR-V7-positive patients) [months] | median clinical/radiographic progression-free survival (PFS) (AR-V7-positive patients) [months] | PSA response rate (≥50% PSA decline from baseline) [2] [%] | median overall survival (OS) (AR-V7-positive patients) [months] | PSA response rate (≥50% PSA decline from baseline, maintained ≥4 weeks) [%] | HR for PFS, AR-V7 presence | HR for PSA-PFS, AR-V7 presence | HR for PFS, AR-FL levels | HR for PSA-PFS, AR-FL levels | HR for PFS, previous use of alternative AR-directed agent | HR for PSA-PFS, previous use of alternative AR-directed agent | PSA Response [4] [%] | PSA Response [5] [%] | PSA Response [6] [%] | PSA Response [7] [%] | Hazard Ratio (HR) for PFS, variable AR-FL Level (log) | other results |
| --- | --- | --- | --- | --- | --- | --- | --- | --- | --- | --- | --- | --- | --- | --- | --- | --- | --- | --- | --- | --- | --- |
| C[C@]12CC[C@H](O)CC1=CC[C@@H]1[C@@H]2CC[C@]2(C)C(c3cccnc3)=CC[C@@H]12 [abiraterone] | > 5.3 | > 6.3 | 68.0 | > 11.9 months | 1.3 | 2.3 | 0 | 10.6 | 54.8 | 7.6 | 15.7 | 1.1 | 1.0 | 1.9 | 0.9 | 0 | 74 | 0 | 0 | 1.36 | PFA-PFS HR, AR-V7 [+] vs [−] [3]: HR 41.0; PFS HR, AR-V7 [+] vs [−] [3]: HR 28.2; Hazard Ratio (HR) for PFS, variable AR-V7 Positive: 5.25; Hazard Ratio (HR) for PFS, variable Prior use of Abiraterone: 1.72; Hazard Ratio (HR) for PSA-PFS, variable AR-FL Level (log): 1.05; Hazard Ratio (HR) for PSA-PFS, variable AR-V7 Positive: 17.51; Hazard Ratio (HR) for PSA-PFS, variable Prior use of Abiraterone: 0.61; hazard ratio (HR) for OS, AR-V7-positive vs AR-V7-negative: 12.7; hazard ratio (HR) for PFS, AR-V7-positive vs AR-V7-negative: 16.5; hazard ratio (HR) for PSA-PFS, AR-V7-positive vs AR-V7-negative: 16.1 |
| CNC(=O)c1ccc(N2C(=S)N(c3ccc(C#N)c(C(F)(F)F)c3)C(=O)C2(C)C)cc1F [enzalutamide] | 6.0 | 6.1 | 52.6 | not reached | 1.4 | 2.1 | 0 | 5.5 | 32.3 | 3.0 | 3.1 | 1.7 | 1.4 | 2.6 | 2.5 | 0 | 80 | 0 | 22 | 1.64 | PFA-PFS HR, AR-V7 [+] vs [−] [8]: HR 3.34; PFS HR, AR-V7 [+] vs [−] [8]: HR 2.93; Hazard Ratio (HR) for PFS, variable AR-V7 Positive: 3.38; Hazard Ratio (HR) for PFS, variable Prior use of Abiraterone: 1.54; Hazard Ratio (HR) for PSA-PFS, variable AR-FL Level (log): 1.33; Hazard Ratio (HR) for PSA-PFS, variable AR-V7 Positive: 3.40; Hazard Ratio (HR) for PSA-PFS, variable Prior use of Abiraterone: 2.66; hazard ratio (HR) for OS, AR-V7-positive vs AR-V7-negative: 6.9; hazard ratio (HR) for PFS, AR-V7-positive vs AR-V7-negative: 8.5; hazard ratio (HR) for PSA-PFS, AR-V7-positive vs AR-V7-negative: 7.4 |
